Assay results as given in ChEMBL document CHEMBL4823254, “Tetrahydroquinoline-Capped Histone Deacetylase 6 Inhibitor SW-101 Ameliorates Pathological Phenotypes in a Charcot-Marie-Tooth Type 2A Mouse Model” (J Med Chem, 2021).
Active and inactive are the calls of the source.

How the values were obtained:
[1] = Half life in CD1 mouse pooled liver microsomes assessed as parent compound remaining measured up to 60 mins in presence of NADPH by LC-MS/MS analysis; type: ADME, Microsome; settings: CD1, mouse, pooled liver microsomes
Histone deacetylase 8 = target: T1, Histone deacetylase 8 (Homo sapiens, UniProt Q9BY41)
T1 sequence (Q9BY41 whole entry): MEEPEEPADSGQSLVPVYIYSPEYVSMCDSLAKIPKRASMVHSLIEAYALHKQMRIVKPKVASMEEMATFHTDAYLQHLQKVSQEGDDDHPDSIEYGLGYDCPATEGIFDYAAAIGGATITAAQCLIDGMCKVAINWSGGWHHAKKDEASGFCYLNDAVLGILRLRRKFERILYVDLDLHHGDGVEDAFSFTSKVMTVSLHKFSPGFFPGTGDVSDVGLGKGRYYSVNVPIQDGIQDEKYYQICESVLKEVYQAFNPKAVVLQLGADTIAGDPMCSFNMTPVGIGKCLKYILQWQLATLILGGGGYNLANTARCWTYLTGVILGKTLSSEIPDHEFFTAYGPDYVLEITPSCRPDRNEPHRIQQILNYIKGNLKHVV
Description: Inhibition of recombinant human HDAC8 using Boc-Lys(TFA)-AMC as substrate preincubated for 10 mins followed by substrate addition and measured after 30 mins by fluorescence-based assay

hERG (KCNH2) = hERG (KCNH2) (Homo sapiens, UniProt Q12809); test: Inhibition of human ERG expressed in CHO cells at 10 uM by automated patch clamp method relative to control; type: cell-based; settings: CHO cells expressing human ERG
[2] = target: T2, Protein deacetylase HDAC6 (Homo sapiens, UniProt Q9UBN7); test: Inhibition of HDAC6 in human RPMI-8226 cells assessed as increase in tubulin acetylation incubated for 6 hrs by Western blot analysis; type: cell-based
T2 sequence (Q9UBN7 whole entry): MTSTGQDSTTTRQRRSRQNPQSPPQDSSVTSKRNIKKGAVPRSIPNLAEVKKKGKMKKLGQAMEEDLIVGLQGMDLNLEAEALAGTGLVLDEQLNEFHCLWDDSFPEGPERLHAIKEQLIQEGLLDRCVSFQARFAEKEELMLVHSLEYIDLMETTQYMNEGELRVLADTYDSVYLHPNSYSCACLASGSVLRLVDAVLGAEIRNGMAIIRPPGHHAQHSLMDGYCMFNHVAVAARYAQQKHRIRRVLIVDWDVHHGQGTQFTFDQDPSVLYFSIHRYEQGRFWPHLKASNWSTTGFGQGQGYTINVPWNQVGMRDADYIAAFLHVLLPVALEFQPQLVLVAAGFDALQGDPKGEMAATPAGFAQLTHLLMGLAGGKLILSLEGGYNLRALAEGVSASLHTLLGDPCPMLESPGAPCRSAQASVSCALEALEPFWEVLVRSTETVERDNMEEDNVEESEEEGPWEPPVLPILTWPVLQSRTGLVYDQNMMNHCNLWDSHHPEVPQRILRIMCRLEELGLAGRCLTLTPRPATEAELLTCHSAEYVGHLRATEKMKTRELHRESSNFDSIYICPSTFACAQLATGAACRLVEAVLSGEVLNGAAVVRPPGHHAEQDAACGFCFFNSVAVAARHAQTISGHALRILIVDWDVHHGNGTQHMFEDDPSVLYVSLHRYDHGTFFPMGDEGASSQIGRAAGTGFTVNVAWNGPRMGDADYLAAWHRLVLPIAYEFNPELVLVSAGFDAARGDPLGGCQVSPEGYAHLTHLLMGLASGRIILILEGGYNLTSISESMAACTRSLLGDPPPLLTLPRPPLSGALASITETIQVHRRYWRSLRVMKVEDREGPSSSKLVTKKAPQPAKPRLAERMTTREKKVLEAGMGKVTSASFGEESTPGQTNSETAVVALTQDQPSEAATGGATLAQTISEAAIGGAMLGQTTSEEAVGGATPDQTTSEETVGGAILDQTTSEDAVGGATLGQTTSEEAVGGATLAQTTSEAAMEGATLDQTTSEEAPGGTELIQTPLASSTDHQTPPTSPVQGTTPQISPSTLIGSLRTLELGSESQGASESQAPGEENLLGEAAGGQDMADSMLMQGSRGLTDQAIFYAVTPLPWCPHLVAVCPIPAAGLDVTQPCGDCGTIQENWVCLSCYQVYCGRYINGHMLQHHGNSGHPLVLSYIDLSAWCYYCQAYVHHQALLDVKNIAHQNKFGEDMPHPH

[3] = Half life in C57BL/6J mouse brain at 15 mg/kg, ip; type: ADME, organism-based
[4] = Genotoxicity in Salmonella typhimurium TA100 at 5 to 100 uM in presence of liver S9 fraction by Ames test; type: toxicity; settings: salmonella enterica subsp. enterica serovar typhimurium, s9, 100 µM; dose 5-100 µM
[5] = Genotoxicity in Salmonella typhimurium TA98 at 5 to 100 uM in absence of liver S9 fraction by Ames test; type: toxicity; settings: salmonella enterica subsp. enterica serovar typhimurium, s9, 100 µM; dose 5-100 µM
[6] = Half life in human pooled liver microsomes assessed as parent compound remaining measured up to 60 mins in presence of NADPH by LC-MS/MS analysis; type: ADME, Microsome; settings: pooled liver microsomes
Histone deacetylase 9 = Histone deacetylase 9 (Homo sapiens, UniProt Q9UKV0); test: Inhibition of recombinant human HDAC9 using Boc-Lys(TFA)-AMC as substrate preincubated for 10 mins followed by substrate addition and measured after 30 mins by fluorescence-based assay
[7] = Half life in human liver s9 fraction; type: ADME, subcellular
[8] = Genotoxicity in Salmonella typhimurium TA1535 at 5 to 100 uM in absence of liver S9 fraction by Ames test; type: toxicity; settings: salmonella enterica subsp. enterica serovar typhimurium, s9, 100 µM; dose 5-100 µM
[9] = Stability in human pooled liver microsomes assessed as parent compound remaining measured at 60 mins in presence of NADPH by LC-MS/MS analysis; type: ADME, Microsome; settings: pooled liver microsomes, read-out: Stabilty
[10] = Protein binding in mouse plasma; type: ADME, cell-free; settings: read-out: PPB (converted)
Mus musculus = test: Neuroprotective activity in hMFN2-induced CMT2A transgenic mouse model assessed as increase in paw withdrawal threshold at 20 mg/kg, ip qd by von Frey test; type: functional, organism-based

Sequence of Histone deacetylase 9 (Q9UKV0 whole entry): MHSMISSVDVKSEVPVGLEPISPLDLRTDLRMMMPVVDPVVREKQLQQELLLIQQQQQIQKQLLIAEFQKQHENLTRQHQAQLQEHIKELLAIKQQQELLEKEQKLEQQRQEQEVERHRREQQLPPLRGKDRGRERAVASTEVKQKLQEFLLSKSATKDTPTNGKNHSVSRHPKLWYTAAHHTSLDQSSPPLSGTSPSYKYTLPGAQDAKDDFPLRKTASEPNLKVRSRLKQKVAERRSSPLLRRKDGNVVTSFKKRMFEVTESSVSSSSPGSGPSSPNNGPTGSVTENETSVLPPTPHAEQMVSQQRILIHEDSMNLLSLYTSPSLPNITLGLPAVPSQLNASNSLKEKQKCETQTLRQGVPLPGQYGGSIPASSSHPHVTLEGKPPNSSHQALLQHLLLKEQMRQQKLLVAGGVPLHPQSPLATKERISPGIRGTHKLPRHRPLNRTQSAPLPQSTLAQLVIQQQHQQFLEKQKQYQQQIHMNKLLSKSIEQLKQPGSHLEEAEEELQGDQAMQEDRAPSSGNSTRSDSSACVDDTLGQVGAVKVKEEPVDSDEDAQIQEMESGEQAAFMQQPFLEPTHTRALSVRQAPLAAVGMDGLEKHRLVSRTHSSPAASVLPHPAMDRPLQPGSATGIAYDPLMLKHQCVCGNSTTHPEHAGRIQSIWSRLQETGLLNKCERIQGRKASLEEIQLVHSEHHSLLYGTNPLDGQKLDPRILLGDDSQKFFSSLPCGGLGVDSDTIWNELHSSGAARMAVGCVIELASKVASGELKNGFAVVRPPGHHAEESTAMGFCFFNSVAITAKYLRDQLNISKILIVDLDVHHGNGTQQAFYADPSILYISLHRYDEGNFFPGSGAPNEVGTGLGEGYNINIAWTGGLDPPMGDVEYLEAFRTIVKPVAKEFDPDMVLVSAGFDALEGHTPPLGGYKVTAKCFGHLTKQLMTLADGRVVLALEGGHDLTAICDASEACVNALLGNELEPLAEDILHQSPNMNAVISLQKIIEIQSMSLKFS
Sequence of hERG (KCNH2) (Q12809 whole entry): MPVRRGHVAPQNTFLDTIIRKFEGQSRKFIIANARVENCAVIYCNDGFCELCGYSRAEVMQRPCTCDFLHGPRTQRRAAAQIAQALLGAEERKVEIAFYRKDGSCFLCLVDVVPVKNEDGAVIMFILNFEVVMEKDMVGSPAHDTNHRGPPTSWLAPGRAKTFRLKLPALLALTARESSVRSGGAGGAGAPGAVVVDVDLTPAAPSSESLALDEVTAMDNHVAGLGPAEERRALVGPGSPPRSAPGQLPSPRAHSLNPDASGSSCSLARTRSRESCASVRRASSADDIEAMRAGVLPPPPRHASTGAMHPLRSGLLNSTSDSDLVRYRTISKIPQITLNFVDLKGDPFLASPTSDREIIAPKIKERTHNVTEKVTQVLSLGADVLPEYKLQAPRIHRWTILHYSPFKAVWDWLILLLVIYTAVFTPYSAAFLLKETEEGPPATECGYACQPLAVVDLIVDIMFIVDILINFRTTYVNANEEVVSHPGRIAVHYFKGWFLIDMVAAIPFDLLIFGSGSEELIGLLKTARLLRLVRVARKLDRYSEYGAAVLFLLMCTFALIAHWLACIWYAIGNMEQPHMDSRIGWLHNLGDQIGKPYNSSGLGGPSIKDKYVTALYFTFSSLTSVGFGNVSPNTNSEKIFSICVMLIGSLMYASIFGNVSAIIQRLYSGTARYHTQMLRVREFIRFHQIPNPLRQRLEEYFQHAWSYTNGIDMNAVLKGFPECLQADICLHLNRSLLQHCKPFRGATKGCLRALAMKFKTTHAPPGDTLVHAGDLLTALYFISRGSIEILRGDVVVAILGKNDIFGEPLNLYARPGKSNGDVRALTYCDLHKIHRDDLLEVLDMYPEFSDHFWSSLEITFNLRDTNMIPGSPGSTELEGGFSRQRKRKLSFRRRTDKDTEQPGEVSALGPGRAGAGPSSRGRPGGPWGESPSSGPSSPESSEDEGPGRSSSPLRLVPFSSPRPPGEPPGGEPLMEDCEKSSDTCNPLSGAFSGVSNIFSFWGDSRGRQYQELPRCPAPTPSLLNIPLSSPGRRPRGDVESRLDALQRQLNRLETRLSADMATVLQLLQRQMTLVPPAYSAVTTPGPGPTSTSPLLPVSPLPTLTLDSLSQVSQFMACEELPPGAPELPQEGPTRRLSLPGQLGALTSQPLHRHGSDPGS

**Q.** Which half-life [1] does the source give for NC(=O)c1ccc2c(c1)CCCN2Cc1ccc(C(=O)NO)cc1 here?
**A.** The half-life was 1.48 h.

**Q.** What about the IC50 (Histone deacetylase 8) of the same molecule?
**A.** The IC50 was 651 nM.

**Q.** And the inhibition at 10 µM (hERG (KCNH2))?
**A.** Its inhibition at 10 µM is 30%.

**Q.** What about the EC50 [2] of the same molecule?
**A.** Its EC50 is 140 nM.

**Q.** What about the half-life [3] of the same molecule?
**A.** Its half-life is 2.9 h.

**Q.** What about the Activity [4] of the same molecule?
**A.** Its Activity is “Non-Toxic”.

**Q.** What about the Activity [5] of the same molecule?
**A.** Its Activity is “Non-Toxic”.

**Q.** What about the half-life [6] of the same molecule?
**A.** Its half-life is 2.89 h.

**Q.** What about the IC50 (Histone deacetylase 9) of the same molecule?
**A.** The IC50 was 650 nM.

**Q.** And the half-life [7]?
**A.** Its half-life is greater than 16.7 h.

**Q.** And the Activity [8]?
**A.** Its Activity is “Non-Toxic”.

**Q.** And the remaining at 1 h [9]?
**A.** Its remaining at 1 h is 76.3%.

**Q.** What about the fraction unbound [10] of the same molecule?
**A.** Its fraction unbound is 0.241.

**Q.** What about the Activity (Mus musculus) of the same molecule?
**A.** The Activity was “Active”.
